Consider one compound from PMC4700268 (Frontiers in Pharmacology, 2016).

pIC50: −log10 of the molar value. Where “and” joins values, the source holds several entries; their conditions need not be identical. Equal values may be shown once.

Series [1] relates to MDCK II cells transiently transfected with hCNT2. The series is described as follows: MTS cell viability assay in hCNT2 transfected MDCK II cells. The format is cell-based, canine. Conditions: 24 h, 250–1000 μM, hCNT2 vs empty vector MDCK II cells. The procedure: (§1) The controls were prepared simultaneously.
(In general: Tetrazolium assays rely on reduction of a dye to a coloured formazan, in cell work by metabolically active cells.)

Series [2] concerns MDCK II cells transiently transfected with hCNT3. Description: MTS cell viability assay in hCNT3 transfected MDCK II cells. The settings on record: 24 h, 250–1000 μM, hCNT3 vs empty vector MDCK II cells. The format is cell-based, canine. The procedure:
as §1

Series [3] in a line: Urinary excretion of ETV and estimated concentration in final urine. Conditions: 1 mg dose, 24 h-urinary volume of 1 L. The format is in vivo.
For series [4] the following is noted: ref Matthews, 2006, Yan et al.; cited from earlier work.
Series [5] deals with T1, hCNT2 (Homo sapiens, UniProt O43868).
T1 sequence (O43868 1-658): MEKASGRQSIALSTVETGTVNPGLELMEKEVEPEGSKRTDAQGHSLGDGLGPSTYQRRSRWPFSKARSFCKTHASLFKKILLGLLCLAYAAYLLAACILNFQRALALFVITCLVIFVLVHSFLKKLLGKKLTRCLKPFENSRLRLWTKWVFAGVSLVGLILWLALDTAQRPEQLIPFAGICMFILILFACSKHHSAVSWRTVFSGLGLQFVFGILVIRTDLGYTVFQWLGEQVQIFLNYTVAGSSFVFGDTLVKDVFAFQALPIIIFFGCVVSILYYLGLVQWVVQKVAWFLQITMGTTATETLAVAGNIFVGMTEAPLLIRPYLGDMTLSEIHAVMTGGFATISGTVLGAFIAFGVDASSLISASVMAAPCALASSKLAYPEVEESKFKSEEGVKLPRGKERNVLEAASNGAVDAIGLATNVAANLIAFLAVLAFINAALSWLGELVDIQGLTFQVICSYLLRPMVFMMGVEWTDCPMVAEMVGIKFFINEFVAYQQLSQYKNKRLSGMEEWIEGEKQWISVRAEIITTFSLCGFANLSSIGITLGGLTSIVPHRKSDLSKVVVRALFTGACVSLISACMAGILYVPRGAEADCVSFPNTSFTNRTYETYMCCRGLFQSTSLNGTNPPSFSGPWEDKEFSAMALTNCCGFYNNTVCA
The series is described as follows: Inhibition of [3H]uridine uptake in hCNT2 transfected MDCK II cells. The format is in vitro ADME. Also noted: host or cells: MDCK II cells, transient transfection. The settings on record: 1 μM [3H]uridine, MDCK II cells transiently transfected with hCNT2, 2 min, 37°C; read-out: IC50, inhibition of hCNT2 mediated transport. The procedure:
(§2) Inhibitory transport assays were carried out in 24-well plates as described previously ([Mandikova et al., 2013]). Transport assays in HeLa cells transiently transfected with the hOAT1 expression construct were performed 48 h after transfection. Transport assays in MDCK II cells transiently transfected with hOCT2, hCNT2 or hCNT3 were performed 24 h after transfection. The cultivation medium was removed and the cells were washed with transport solution and preincubated for 10 min at 37°C. The standard radiolabeled substrate or tested radioactive antiviral substance dissolved in transport solution was added to the cells and incubated for 2 min. [^3H]PAH (1 μM) was used as a prototypical substrate for OATs, [^3H]MPP^+ (1 μM) for OCTs and [^3H]uridine (1 μM) for CNTs. […] After the designated time period, the incubation was stopped by washing the cells twice with ice-cold solution containing 137 mM NaCl and 10 mM HEPES, pH 7.4. The cells were disintegrated with 0.1 mL of Triton X 0.5% in 100 mM NaOH for 1 h.
(§3) IC50 values were calculated using non-linear regression analysis using GraphPad Prism software (version 6).

The target of series [6] is T2, hCNT3 (Homo sapiens, UniProt Q9HAS3).
T2 sequence (Q9HAS3 1-691): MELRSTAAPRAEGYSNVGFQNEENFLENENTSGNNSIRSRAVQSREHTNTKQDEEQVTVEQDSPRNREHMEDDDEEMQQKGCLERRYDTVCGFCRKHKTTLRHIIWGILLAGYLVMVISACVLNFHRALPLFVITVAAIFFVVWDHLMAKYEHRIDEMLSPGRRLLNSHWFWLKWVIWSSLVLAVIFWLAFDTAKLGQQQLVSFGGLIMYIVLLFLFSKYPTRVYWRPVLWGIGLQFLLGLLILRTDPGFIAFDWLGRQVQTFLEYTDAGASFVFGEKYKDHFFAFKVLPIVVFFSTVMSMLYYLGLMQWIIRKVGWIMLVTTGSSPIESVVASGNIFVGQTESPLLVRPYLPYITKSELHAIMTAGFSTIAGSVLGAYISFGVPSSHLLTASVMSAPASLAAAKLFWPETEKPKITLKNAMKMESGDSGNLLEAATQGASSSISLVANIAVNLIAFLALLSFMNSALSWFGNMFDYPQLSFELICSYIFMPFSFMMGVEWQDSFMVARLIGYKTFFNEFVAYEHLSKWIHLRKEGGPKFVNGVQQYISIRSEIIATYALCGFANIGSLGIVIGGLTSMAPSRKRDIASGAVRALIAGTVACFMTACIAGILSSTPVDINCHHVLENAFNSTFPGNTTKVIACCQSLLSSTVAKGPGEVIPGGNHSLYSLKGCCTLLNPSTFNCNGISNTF
The series is described as follows: Inhibition of [3H]uridine uptake in hCNT3 transfected MDCK II cells. The format is in vitro ADME. Also noted: host or cells: MDCK II cells, transient transfection. The settings on record: 1 μM [3H]uridine, MDCK II cells transiently transfected with hCNT3, 2 min, 37°C; read-out: IC50, inhibition of hCNT3 mediated transport. The procedure: as §2, §3

In general, pIC50 refers to −log10 of the IC50, conventionally taken in molar units. As for `C=C1[C@H](CO)[C@@H](O)C[C@@H]1n1cnc2c(=O)[nH]c(N)nc21` [ETV, Entecavir], the “Effect of hCNT2 expression on cytotoxicity” value in series [1] is recorded as “did not prove any significant increase in cytotoxicity”. Further, the “Effect of hCNT3 expression on cytotoxicity” value in series [2] was “did not prove any significant increase in cytotoxicity”. Besides, in series [3], the “Estimated concentration in the final urine” value is “approximately 700 μg/L and ~2.5 μM”. For the same compound, the “Therapeutic concentrations in plasma following regular doses” value in series [4] is “below 50 nM”. Besides, the results for the pIC50 in series [5] and in series [6] were 3.62 and 3.56, respectively.
